Assay results taken from patent US20060035927A1, “Calcilytic compounds” (SmithKline Beecham Corporation, priority 1999, published 2006).
Counter-ions that a name gives are not always drawn.

How the values were obtained:
osteopenic ovx rats [1] = assay: Ovariectomized rat Study 1: dynamic histomorphometry of proximal tibia; type: in vivo
Source text: Seven month old virgin Sprague Dawley female rats were subjected to bilateral ovariectomy or sham surgery and the animals then held for a period of three months to allow the development of osteopenia. At that time a single sham group (n=10) and three groups of ovariectomized (ovx) animals (n=10-14) were assigned. The ovx groups were selected such that there was no significant difference in bone mineral density (“BMD”) of the lumbar spine, proximal tibia or distal femur between groups. Groups consisted of sham and ovx controls treated with dose vehicle (20% aqueous encapsin) and ovx groups treated with either N-[(2R-Hydroxy-3-[(3-chloro-2-cyano)phenoxy-propyl]-1,1-dimethyl-2-(2-naphthyl)ethyl amine hydrochloride (“calcilytic administered”) ([…] body weight daily p.o.) or rat PTH 1-34 (5 ug/kg body weight daily s.c.).
During the study blood samples were drawn for determination of circulating PTH and osteocalcin. BMD was determined by DXA (QDR4500 Hologic, Waltham, Mass.) prior to treatment and at weeks 4 and 8. At term tibiae were removed for histological analysis. All animals received tetracycline 10 and 3 days prior to the start of dosing and calcein (10 mg/kg) 10 and 3 days prior to sacrifice.
(§1) Bone samples were dehydrated through increasing concentrations of ethanol, defatted in acetone and embedded in methyl methacrylate (Polysciences, Inc., Warrington, Pa.). Longitudinal undecalcified sections (5 μm) sections of the proximal tibial were cut on a Leica microtome (SM2500S); the tissue blocks had been prestained with Villanueva stain. Histomorphometric analysis was carried out using an Osteomeasure system (OsteoMetrics Incorpotated), without knowledge of group allocation. Measurements within the tibial metaphysis were restricted to a mean tissue area of approximately 8 mm^2 beginning 1 mm below the growth plate. Primary measurements included area of bone and marrow (mm^2), bone area (mm^2), perimeter of bone (mm), single and double-labelled perimeter (sL.Pm, dL.Pm, m), osteoid perimeter (O.Pm, m) and eroded perimeter (Er.P, m). Derived indices included trabecular bone volume (% Tb.Ar), trabecular number (Th.N, mm^−1), trabecular thickness (Th.Th, μm), trabecular separation (Th.Sp, μm), bone formation rate, surface referent (BFR/Tb.Pm, μm^3/μm^2/year), BFR/Tb.Ar (bone area referent, %/year), BFR/B.Ar (tissue referent, %/year) and mineral apposition rate (MAR, μm/day), and percent labelled perimeter (% Lp). Statistical analysis was assessed by a two sided t-test.

TF274 cells = assay: Osteoblast alkaline phosphatase activity; type: cell-based, human; conditions: compound 0.1, 1 and 10 uM
Experimental: cAMP accumulation was measured in both human TF274 osteoblastic cells (derived by immortalization of human bone marrow stromal cells) see James, supra, and primary human osteoblasts derived from explants of trabecular bone as described in Beresford, Biochim. Biophys. Acta, Vol. 801, pp. 58-65 ([…]). cAMP levels in cell samples were measured using a non-radioactive protocol (Amersham kit). Alkaline phosphatase activity was determined using the standard colorimetric method as described previously in Gowen, Arth. Rheum., Vol. 31, pp. 1500-1507 (1988). N-[(2R-Hydroxy-3-[(3-chloro-2-cyano)phenoxy-propyl]-1,1-dimethyl-2-(2-naphthyl)ethyl amine hydrochloride was tested at 0.1, 1 and 10 uM. PTH 40 ng/ml was used as a positive control.

fetal rat long bone = assay: Fetal rat long bone resorption assay; type: cell-based; conditions: 45Ca release, PTH-stimulated, 48 hours; read-out: IC50, inhibition of resorption in fetal rat long bone assay
Experimental: The assay was performed essentially as in Votta, Bone, Vol. 15, pp. 533-538, (1994). Timed-pregnant Sprague-Dawley rats (Taconic Farms, Germantown, N.Y.) were injected subcutaneously with 200 microcuries of ^45CaCl2 on day 18 of gestation, housed overnight, then anesthetized with Innovar-Vet (Pittman-Moore, Mundelein, Ill.) and sacrificed by cervical dislocation. The fetuses were removed aseptically and the radii and ulnae were dissected free of surrounding soft tissue and cartilagenous ends. The bone rudiments (n=4) were subsequently cultured for 18-24 hours in BGJb medium (Sigma, St. Louis, Mo.) containing 1 mg/ml BSA, then transferred to fresh medium and cultured for an additional 48 hours in the absence or presence of PTH (human parathyroid hormone, Bachem, Torrence, Calif.) and the desired inhibitor. ^45 Ca released into the medium and the residual ^45Ca in the bones (following solubilization in 5% TCA for 1 hour at room temperature) were quantitated by liquid scintillation spectrometry. Data are expressed as the percent ^45Ca released from treated bones as compared with corresponding control bones. Statistical differences were assessed by a one way analysis of variance (ANOVA). IC-50 values were based on data from two independent experiments.

osteopenic ovx rats [2] = assay: Ovariectomized rat Study 2: calcilytic plus/minus 17β estradiol, histology and histomorphometry of proximal tibia; type: in vivo; conditions: Study 2, proximal tibia, static histomorphometry, vs ovx group
Experimental: as §1, with “Animals were prepared and monitored as described above. […] Dosing continued for 5 weeks at which point the animals were sacrificed and the tibiae were collected for histological analysis. Bone” for “Bone”, “(S[…]);” for “(SM2500S);”, “Derived indices included trabecular bone volume (% Tb.Ar), trabecular number (Th.N, mm^−1), trabecular thickness (Th.Th, μm), trabecular separation (Th.Sp, μm), bone formation rate, surface referent (BFR/Tb.Pm, μm^3/μm^2/year), BFR/Tb.Ar (bone area referent, %/year), BFR/B.Ar (tissue referent, %/year) and mineral apposition rate (MAR, μm/day), and percent labelled perimeter (% Lp).” left out

[3] = Study 1, proximal tibia, vs ovx control, calcilytic 100 mmol/kg p.o. or PTH 5 ug/kg s.c. daily

SMILES: CC(C)(Cc1ccc2ccccc2c1)NC[C@@H](O)COc1cccc(Cl)c1C#N [N-[(2R-Hydroxy-3-[(3-chloro-2-cyano)phenoxy-propyl]-1,1-dimethyl-2-(2-naphthyl)ethylamine hydrochloride]
- bone formation and resorption, net bone gain or loss (osteopenic ovx rats [1]; Study 1, overall outcome): dramatic increase in both bone formation and resorption, with no net bone gain or loss
- bone turnover, BFR/B.Ar. (osteopenic ovx rats [1]; Study 1, proximal tibia, compared with PTH and ovx control groups): dramatic increase
- bone resorption, % eroded perimeter (osteopenic ovx rats [1]; Study 1, proximal tibia, vs PTH or ovx control groups): significantly higher
- bone formation: % labeled perimeter (% L.Pm.) (osteopenic ovx rats [1]; [3]): elevated above the ovx control level
- bone formation: % osteoid perimeter (% Os.Pm) (osteopenic ovx rats [1]; [3]): elevated above the ovx control level
- alkaline phosphatase activity (TF274 cells): did not result in any change
- PTH-induced alkaline phosphatase (TF274 cells; PTH 40 ng/ml): nor was PTH-induced alkaline phosphatase affected
- IC50 (fetal rat long bone): 11.3 µM
- % trabecular area (% Tb.Ar.) / ovx-induced bone loss (osteopenic ovx rats [2]): no effect
